Experimental data published in patent US7884117B2, “Carbonylamino pyrrolopyrazoles, potent kinase inhibitors” (Pfizer Inc., priority 2005, dated 2011).
One block for each compound: values may come before it.

Legend:
[1] = biological target: T1, PAK4 Kinase domain (PAK4 KD) (Homo sapiens, UniProt O96013); experiment: PAK4 kinase domain enzymatic assay (PK/LDH-coupled, Ki); type: biochemical; conditions: PAK4 Kinase Domain
T1 construct: Cloning, expression, and purification of recombinant PAK4 Kinase domain (PAK4 KD); His tag (pET28a(+)/pET24a(+), Ni-NTA purification) (N, cleaved yes); GST (pGST4.5, glutathione column) (N, cleaved yes); made in house; host or cells: E. coli BL21(DE3)
T1 sequence (O96013 321-572 limits assumed): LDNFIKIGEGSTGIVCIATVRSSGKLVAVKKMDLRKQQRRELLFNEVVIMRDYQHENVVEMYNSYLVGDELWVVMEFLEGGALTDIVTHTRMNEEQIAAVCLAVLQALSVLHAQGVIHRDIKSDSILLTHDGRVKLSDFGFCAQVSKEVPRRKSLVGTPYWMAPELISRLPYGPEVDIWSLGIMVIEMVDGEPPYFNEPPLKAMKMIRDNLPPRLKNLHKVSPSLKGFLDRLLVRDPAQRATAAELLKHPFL

[2] = biological target: T2, PAK4 kinase activity in whole cells (TR-293-KDG, modified HEK 293) (Homo sapiens, UniProt O96013); experiment: PAK4 cellular assay: sandwich ELISA of PAK4-dependent phosphorylation of GEF-H1b in TR-293-KDG cells; type: cell-based; conditions: 3-hour exposure
T2 construct: engineered to overexpress both GEF-H1b and the kinase domain (KD) of PAK4; expressed in transfected cells; host or cells: TR-293-KDG (modified HEK 293, Trex system, Invitrogen)
T2 sequence (O96013 321-572 limits assumed): as above

SMILES: CN(C)CC(OC(=O)N1Cc2c(NC(=O)c3ccc(F)cc3F)n[nH]c2C1(C)C)c1ccccc1 (stereo not shown) [Example 23, 2-(dimethylamino)-1-phenylethyl 3-[(2,4-difluorobenzoyl)amino]-6,6-dimethyl-4,6-dihydropyrrolo[3,4-c]pyrazole-5(1H)-carboxylate]
Ki [1]: 0.122 µM | EC50 [2]: 0.0039 µM

SMILES: CN(C)C[C@@H](OC(=O)N1Cc2c(NC(=O)c3ccccc3)n[nH]c2C1(C)C)c1ccccn1 [Example 24, (1R)-2-(dimethylamino)-1-pyridin-2-ylethyl 3-(benzoylamino)-6,6-dimethyl-4,6-dihydropyrrolo[3,4-c]pyrazole-5(1H)-carboxylate]
Ki [1]: 0.0637 µM | EC50 [2]: 0.14 µM

SMILES: CN(C)C[C@@H](OC(=O)N1Cc2c(NC(=O)c3ccc(F)cc3)n[nH]c2C1(C)C)c1ccccn1 [Example 25, (1R)-2-(dimethylamino)-1-pyridin-2-ylethyl 3-[(4-fluorobenzoyl)amino]-6,6-dimethyl-4,6-dihydropyrrolo[3,4-c]pyrazole-5(1H)-carboxylate]
Ki [1]: 0.0786 µM | EC50 [2]: 0.153 µM

SMILES: CN(C)C[C@@H](OC(=O)N1Cc2c(NC(=O)c3ccccc3F)n[nH]c2C1(C)C)c1ccccn1 [Example 26, (1R)-2-(dimethylamino)-1-pyridin-2-ylethyl 3-[(2-fluorobenzoyl)amino]-6,6-dimethyl-4,6-dihydropyrrolo[3,4-c]pyrazole-5(1H)-carboxylate]
Ki [1]: 0.278 µM | EC50 [2]: 0.244 µM

SMILES: CN(C)C[C@@H](OC(=O)N1Cc2c(NC(=O)c3ccc(C(F)(F)F)cc3)n[nH]c2C1(C)C)c1ccccn1 [Example 27, (1R)-2-(dimethylamino)-1-pyridin-2-ylethyl 6,6-dimethyl-3-{[4-(trifluoromethyl)benzoyl]amino}-4,6-dihydropyrrolo[3,4-c]pyrazole-5(1H)-carboxylate]
Ki [1]: 0.0821 µM | EC50 [2]: 0.0799 µM

SMILES: CN(C)C[C@@H](OC(=O)N1Cc2c(NC(=O)Cc3ccc(F)cc3)n[nH]c2C1(C)C)c1ccccn1 [Example 28, (1R)-2-(dimethylamino)-1-pyridin-2-ylethyl 3-{[(4-fluorophenyl)acetyl]amino}-6,6-dimethyl-4,6-dihydropyrrolo[3,4-c]pyrazole-5(1H)-carboxylate]
Ki [1]: 0.0732 µM | EC50 [2]: 0.28 µM

SMILES: CN(C)C[C@@H](OC(=O)N1Cc2c(NC(=O)[C@@H]3C[C@H]3c3ccccc3)n[nH]c2C1(C)C)c1ccccn1 [Example 29, (1R)-2-(dimethylamino)-1-pyridin-2-ylethyl 6,6-dimethyl-3-({[trans-2-phenylcyclopropyl]carbonyl}-amino)-4,6-dihydropyrrolo[3,4-c]pyrazole-5(1H)-carboxylate]
Ki [1]: 0.0271 µM | EC50 [2]: 0.419 µM

SMILES: CN(C)C[C@H](Cc1ccccc1)OC(=O)N1Cc2c(NC(=O)c3ccccc3)n[nH]c2C1(C)C [Example 30, (1S)-1-benzyl-2-(dimethylamino)ethyl 3-(benzoylamino)-6,6-dimethyl-4,6-dihydropyrrolo[3,4-c]pyrazole-5(1H)-carboxylate]
Ki [1]: 0.106 µM | EC50 [2]: 2.09 µM

SMILES: CC1(C)c2[nH]nc(NC(=O)c3ccc(F)cc3)c2CN1C(=O)OC(CN1CCCC1)c1ccccc1 (stereo not shown) [Example 43, 1-phenyl-2-pyrrolidin-1-ylethyl 3-[(4-fluorobenzoyl)amino]-6,6-dimethyl-4,6-dihydropyrrolo[3,4-c]pyrazole-5(1H)-carboxylate]
Ki [1]: 0.0581 µM | EC50 [2]: 0.439 µM

SMILES: C[C@@H]([C@@H](OC(=O)N1Cc2c(NC(=O)c3ccc(F)cc3)n[nH]c2C1(C)C)c1ccccc1)N(C)C [Example 45, (1S,2S)-2-(dimethylamino)-1-phenylpropyl 3-[(4-fluorobenzoyl)amino]-6,6-dimethyl-4,6-dihydropyrrolo[3,4-c]pyrazole-5(1H)-carboxylate]
Ki [1]: 0.318 µM | EC50 [2]: 0.0211 µM

Next, values leading:

Ki [1]: 0.858 µM | EC50 [2]: 0.23 µM
SMILES: CN(C)C[C@H](Cc1ccccc1)OC(=O)N1Cc2c(NC(=O)c3ccccc3F)n[nH]c2C1(C)C [Example 31, (1S)-1-benzyl-2-(dimethylamino)ethyl 3-[(2-fluorobenzoyl)amino]-6,6-dimethyl-4,6-dihydropyrrolo[3,4-c]pyrazole-5(1H)-carboxylate]

Ki [1]: 0.0571 µM | EC50 [2]: 0.162 µM
SMILES: CN(C)C[C@@H](OC(=O)N1Cc2c(NC(=O)c3ccccc3)n[nH]c2C1(C)C)C1CCCCC1 [Example 32, (1S)-1-cyclohexyl-2-(dimethylamino)ethyl 3-(benzoylamino)-6,6-dimethyl-4,6-dihydropyrrolo[3,4-c]pyrazole-5(1H)-carboxylate]

Ki [1]: 0.51 µM | EC50 [2]: 0.06 µM
SMILES: CN(C)C[C@@H](OC(=O)N1Cc2c(NC(=O)c3ccc(F)cc3F)n[nH]c2C1(C)C)C1CCCCC1 [Example 34, (1S)-1-cyclohexyl-2-(dimethylamino)ethyl 3-[(2,4-difluorobenzoyl)amino]-6,6-dimethyl-4,6-dihydropyrrolo[3,4-c]pyrazole-5(1H)-carboxylate]

Ki [1]: 0.0923 µM | EC50 [2]: 0.216 µM
SMILES: CC(C)C[C@@H](CN(C)C)OC(=O)N1Cc2c(NC(=O)c3ccccc3)n[nH]c2C1(C)C [Example 35, (1S)-1-[(dimethylamino)methyl]-3-methylbutyl 3-(benzoylamino)-6,6-dimethyl-4,6-dihydropyrrolo[3,4-c]pyrazole-5(1H)-carboxylate]

Ki [1]: 0.103 µM | EC50 [2]: 0.315 µM
SMILES: CC(C)C[C@@H](CN(C)C)OC(=O)N1Cc2c(NC(=O)c3ccc(F)cc3)n[nH]c2C1(C)C [Example 36, (1S)-1-[(dimethylamino)methyl]-3-methylbutyl 3-[(4-fluorobenzoyl)amino]-6,6-dimethyl-4,6-dihydropyrrolo[3,4-c]pyrazole-5(H)-carboxylate]

Ki [1]: 0.0432 µM | EC50 [2]: 0.113 µM
SMILES: CN(C)CC(OC(=O)N1Cc2c(NC(=O)c3ccc(F)cc3)n[nH]c2C1(C)C)c1ccccc1F (stereo not shown) [Example 38, 2-(dimethylamino)-1-(2-fluorophenyl)ethyl 3-[(4-fluorobenzoyl)amino]-6,6-dimethyl-4,6-dihydropyrrolo[3,4-c]pyrazole-5(1H)-carboxylate]

Ki [1]: 0.0475 µM | EC50 [2]: 0.0153 µM
SMILES: CN(C)CC(OC(=O)N1Cc2c(NC(=O)c3ccc(F)cc3)n[nH]c2C1(C)C)c1ccc(F)cc1 (stereo not shown) [Example 39, 2-(dimethylamino)-1-(4-fluorophenyl)ethyl 3-[(4-fluorobenzoyl)amino]-6,6-dimethyl-4,6-dihydropyrrolo[3,4-c]pyrazole-5(1H)-carboxylate]

Ki [1]: 0.0649 µM | EC50 [2]: 0.152 µM
SMILES: CC(C)N(C)C[C@@H](OC(=O)N1Cc2c(NC(=O)c3ccc(F)cc3)n[nH]c2C1(C)C)c1ccccc1 [Example 40, (1S)-2-[isopropyl(methyl)amino]-1-phenylethyl 3-[(4-fluorobenzoyl)amino]-6,6-dimethyl-4,6-dihydropyrrolo[3,4-c]pyrazole-5(H)-carboxylate]

Ki [1]: 0.0336 µM | EC50 [2]: 0.0321 µM
SMILES: CN(C)C[C@@H](NC(=O)N1Cc2c(NC(=O)c3ccccc3)n[nH]c2C1(C)C)c1ccccc1 [Example 46, 3-(benzoylamino)-N-[(1S)-2-(dimethylamino)-1-phenylethyl]-6,6-dimethyl-4,6-dihydro pyrrolo[3,4-c]pyrazole-5(1H)-carboxamide]

Ki [1]: 0.0542 µM | EC50 [2]: 0.0347 µM
SMILES: CN(C)C[C@@H](NC(=O)N1Cc2c(NC(=O)c3ccc(F)cc3)n[nH]c2C1(C)C)c1ccccc1 [Example 47, N-[(1S)-2-(dimethylamino)-1-phenylethyl]-3-[(4-fluorobenzoyl)amino]-6,6-dimethyl-4,6-dihydropyrrolo[3,4-c]pyrazole-5(1H)-carboxamide]
